Assay results from article PMC8352984, “Estrogen mediates sex differences in preoptic neuropeptide and pituitary hormone production in medaka” (Communications Biology, 2021).

Key:
[1] = tested on: vip-expressing neurons in the PMp; experiment: Gonadectomy and sex steroid treatment, in situ hybridization of vip in PMp; type: in vivo, medaka (Oryzias latipes); settings: 100 ng ml^-1 in water, 6 days; for number of vip-expressing neurons in PMp: castrated (CX) males
Source text: (§1) Fig. 4 Sex-biased expression of adcyap1 and vip in the POA is established by ovarian estrogen. a Levels of adcyap1 and vip expression in the brain of sex-reversed XX males and XY females versus typical XY males and XX females (n = 8 per group). b Number of adcyap1- and vip-expressing neurons in the PMp of sex-reversed XX males and XY females (n = 5 per group). c Representative micrographs showing adcyap1 and vip expression in the PMp of sex-reversed XX males and XY females. Scale bars represent 50 μm. d Number of adcyap1- and vip-expressing neurons in the PMp of sham-operated (sham) males and castrated males exposed to vehicle alone (CX), 11-ketotestosterone (CX + KT), or estradiol-17β (CX + E2) (n = 5 per group, except CX + E2 for adcyap1 and CX + KT for vip, where n = 4). e Representative micrographs showing adcyap1 and vip expression in the PMp of sham, CX, CX + KT, and CX + E2 males. Scale bars represent 50 μm. f Number of adcyap1- and vip-expressing neurons in the PMp of sham females and ovariectomized females exposed to vehicle alone (OVX), KT (OVX + KT), or E2 (OVX + E2) (n = 5 per group). g Representative micrographs showing adcyap1 and vip expression in the PMp of sham, OVX, OVX + KT, and OVX + E2 females. Scale bars represent 50 μm. Quantitative data were expressed as means with error bars representing standard error of the mean. Statistical differences were assessed by Bonferroni’s post-hoc test (a, d, f) and unpaired t-test (b). *p < 0.05; **p < 0.01; ***p < 0.001.
(§2) For both males and females, the gonad was removed under 0.02% tricaine methane sulfonate anesthesia (Sigma–Aldrich, St. Louis, MO, USA) through a small incision in the ventrolateral abdominal wall. Immediately after removal of the gonad, the incision was sutured with nylon thread. Sham-operated fish underwent the same surgical treatment as gonadectomized fish except for gonad removal. After a recovery period of 3 days in saline (0.9% (w v^−1) NaCl), gonadectomized fish were immersed in water containing 100 ng ml^−1 of KT (Cosmo Bio, Tokyo, Japan) or E2 (Fujifilm Wako Pure Chemical Corporation), or vehicle (ethanol) alone for 6 days and then sampled. Sham-operated fish were treated with vehicle alone and used as controls. The sex steroid concentration used was based on previously reported serum steroid levels in medaka.
(§3) The procedure for single-label in situ hybridization has been described elsewhere. In brief, the brain and pituitary were fixed in 4% paraformaldehyde (PFA) and embedded in paraffin. Serial coronal sections of 10 μm thickness were cut and hybridized with each of the six DIG-labeled Adcyap1/Vip receptor probes described above and the DIG-labeled adcyap1 and vip probes used for northern blot analysis. Hybridization signals were visualized by using alkaline phosphatase-conjugated anti-DIG antibody and 5-bromo-4-chloro-3-indolyl phosphate/nitro blue tetrazolium (BCIP/NBT) substrate (Roche Diagnostics). Color development was allowed to proceed for more than 9 h or was stopped after 1.5 h to avoid saturation (for quantification of vip expression after gonadectomy and sex steroid replacement). All sections in each comparison were processed simultaneously under the same conditions.
(§4) To obtain quantitative data, the number of neurons positive for a hybridization signal was counted manually in each brain nucleus. In some brain regions, these neurons were continuously distributed across two or more nuclei such that it was difficult to count the number of the neurons separately in each nucleus. In this case, the total number of the neurons in the nuclei was counted. For the pituitary and nuclei where these neurons were tightly clustered and their exact number could not be determined, sections were photographed and converted to black and white binary images by thresholding using Adobe Photoshop (ver. 22; Adobe Systems, San Jose, CA, USA). […]

[2] = tested on: adcyap1-expressing neurons in the PMp; experiment: Gonadectomy and sex steroid treatment, in situ hybridization of adcyap1 in PMp; type: in vivo, medaka (Oryzias latipes); settings: 100 ng ml^-1 in water, 6 days; for number of adcyap1-expressing neurons in PMp: castrated (CX) males
Source text: as §1, §2, §3, §4

[3] = ovariectomized females, effect on the ovariectomy-induced reduction
[4] = ovariectomized females, effect on the ovariectomy-induced increase

Row | SMILES | number of vip-expressing neurons in PMp ([1]; fish 1 (Fig. 4d)) | number of vip-expressing neurons in PMp ([1]; fish 2 (Fig. 4d)) | number of vip-expressing neurons in PMp ([1]; fish 3 (Fig. 4d)) | number of vip-expressing neurons in PMp ([1]; fish 4 (Fig. 4d)) | number of vip-expressing neurons in PMp ([1]; fish 5 (Fig. 4d)) | number of vip-expressing neurons in PMp (in words) ([1]; castrated males) | number of vip-expressing neurons in PMp (in words) [1, 3] | number of adcyap1-expressing neurons in PMp ([2]; fish 1 (Fig. 4d)) | number of adcyap1-expressing neurons in PMp ([2]; fish 3 (Fig. 4d)) | number of adcyap1-expressing neurons in PMp ([2]; fish 4 (Fig. 4d)) | number of adcyap1-expressing neurons in PMp ([2]; fish 5 (Fig. 4d)) | number of adcyap1-expressing neurons in PMp (in words) ([2]; castrated males) | number of adcyap1-expressing neurons in PMp (in words) [2, 4] | number of adcyap1-expressing neurons in PMp ([2]; fish 2 (Fig. 4d))
1 | C[C@]12CC[C@@H]3c4ccc(O)cc4CC[C@H]3[C@@H]1CC[C@@H]2O [E2, estradiol-17β] | 260.0 | 388.5 | 363.0 | 447.0 | 311.0 | increased vip-expressing neurons | restored | 56.0 | 85.0 | 112.0 | 79.5 | significantly reduced adcyap1-expressing neurons | completely abolished | 
2 | C[C@]12CC(=O)[C@H]3[C@@H](CCC4=CC(=O)CC[C@@]43C)[C@@H]1CC[C@@H]2O [KT, 11-ketotestosterone] | 98.5 |  | 118.0 | 84.5 | 192.5 | did not affect either of these neurons | not KT treatment | 198.0 | 273.5 | 161.5 | 147.0 | did not affect either of these neurons | had no such effect | 271.0
